In US7138242B2, “Olfactory receptor expression libraries and methods of making and using them” (Johns Hopkins University, priority 1998, dated 2006):

Experiments:
[1] = tested on: full-length I-C6 receptor fused to translocation domain (rhodopsin tag); test: Ca2+ imaging, full-length I-C6 receptor with rhodopsin tag in HEK-293 cells; assay type: cell-based, mouse
Protocol: PCR products were digested with PstI and BspEI restriction enzymes before size fractionation, purification and ligation into the pCMV-Rho/M4NC vector (see FIG. 1A). The vector ligation products were transformed into E. coli and 480 clones were placed in 96-well plates. […] Pools of cells from a single column of the plates (8 wells) were grown in a 50 ml culture and plasmid DNA prepared. Insert-containing vectors containing: the 5′-untranslated region of the rhodopsin gene, which included its coding region for the initiation methionine and the next 19 residues; joined to a full-length cDNA for a mouse olfactory receptor (M4 or I-C6), under the control of the CMV promoter, were also prepared. The full-length coding region of olfactory receptors mI7 and I-C6 were obtained by screening a mouse (129 SV/J) genomic phage (λFIX-II) library (2×10^6 independent clones) using ^32P-labeled DNA fragments (of TMII through VII sequence) of the respective receptors under stringent conditions (hybridized at 0.2×SSC at 65° C.). DNA fragments encoding the full-length receptors were cloned into pBluescript (Stratagene) and sequenced.
(§1) These transfected cells were then tested for their ability to functionally respond to ligand-receptor binding. The ligand, the adrenergic agonist isoproterenol, was “bath” applied to the transfected cells and single cell Ca^2+-imaging was performed. Cells were pre-loaded with the Ca^2+-sensitive fluorescent dye FURA-2 AM (Molecular Probes) by bathing in serum-free DMEM containing 4 μM of the membrane permeant chemical for 1 hr at 37° C., then washed with a standard bath solution (130 mM NaCl, 2 mM CaCl2, 5 mM KCl, 10 mM glucose, 10 mM Na.HEPES/pH 7.4 at room temperature). For each experiment, a glass coverslip with FURA-2 loaded HEK 293 cells was introduced into an open-topped, longitudinal microperfusion chamber (300 μl bath volume mounted on a Zeiss Axiovert 135 microscope equipped with an F Fluar 40×/1.30 oil-immersion lens. The cells were superfused with test solutions typically for 30 to 40 seconds (5 ml/application) and washed out with 5 ml of bath solution at the end of each application. Each test solution was freshly diluted and manually applied with a micropipette into the chamber. Because of this manual procedure, there could be several seconds of delay in actual application from electronic tick marks used to define the beginning of application in each graph. At the same time, the solution flow might not be completely laminar. In most cases, the onset of Ca2+ rise in response to a specific solution occurred within 15 seconds of the beginning of solution application, though longer delays were sometimes observed. Acetylcholine was applied at the end of each experiment at 10 μM for 15–20 seconds. Ratiometric Ca^2+ measurements were performed as described by Grynkiewicz (1985) 260:3440–3450, with modifications using the Zeiss/Attofluor-Ratiovision imaging system. At 5-second intervals, the cells were sequentially illuminated for less than 100 ms, first at 340 nm and then at 380 nm. Fluorescence emission at 510 nm was monitored for each excitation wavelength via an intensified CCD camera. Averaged pixel intensities within 40 to 100 regions of interest, corresponding to 40 to 100 individual cells, were digitized and stored on a computer. Attofluor-Ratiovision software (Atto Instruments) was used to determine the Ca^2+-dependent fluorescence signal expressed as the F340/F380 ratio.
To determine if these physiologic responses were caused by ligand interaction with a full-length 7-membrane receptor, a genomic clone of the entire I-C6 receptor coding sequence was isolated and used to make a chimeric molecule incorporating the tranlocation domain of the invention (the “rhodopsin tag” sequence). The full-length I-C6 receptor retained the same stereo-selectivity as a chimeric receptor construct whose only I-C6 sequence was the transmembrane domains II through VII (i.e., the odorant/ligand binding domain). […]

[2] = tested on: mouse olfactory receptor TM II–VII chimeric receptor library (pools of clones); test: Ca2+ imaging screen of 80 library chimeric receptors (10 pools of eight constructs) against 26 odorants in HEK-293 cells with Gα15,16; assay type: cell-based; conditions: for intracellular Ca2+ response of a clone pool: odorants applied sequentially; for response of a library receptor: micromolar concentrations, three receptors, respectively
Protocol: (§2) HEK-293 cells (obtained from the ATCC) were grown in DMEM supplemented with 10% fetal bovine serum, penicillin (100 U/ml), streptomycin (100 μg/ml) and L-glutamine (2 mM) in 5% CO2. Before transfection, the cells were seeded onto poly-L-lysine-coated 10.5×35×0.17 mm glass coverslips (Bellco) placed in the 60 mm culture dishes. Calcium phosphate-mediated transfections were performed in a 60 mm dish with 3 to 4 μg of receptor construct DNA, 1 μg of pCIS Gα 15 and Gα16 expression vector (Offermanns (1995) supra). 2 μg of pBluescript carrier DNA, and 0.3 μg of pRSV-T antigen expression vector (Gorman (1990) DNA and Protein Eng. Tech. 2:3–9). After 5 to 7 hr incubation, the cells were washed once with PBS containing 0.5 mM EDTA and 10% DMSO, then with PBS before continuing growth in regular media for 40–50 hr.
as §1
The 7-transmembrane domain region TM II–VII expressing vector libraries of the invention were expressed in this cell expression system. Various odorant were screened for their ability to generate a physiologic response in the form of a calcium transient, as above. Eighty plasmid clones arrayed in microtiter plates were pooled into 10 groups of eight constructs each, and co-transfected with Gα15,16 into HEK-293 cells. […]

[3] = tested on: I-G7 chimeric olfactory receptor; test: Ca2+ imaging, individual clone I-G7 in HEK-293 cells with Gα15,16; assay type: cell-based, mouse; conditions: 10 μM
Protocol: These transfected cells were then tested for their ability to functionally respond to ligand-receptor binding. The ligand, the adrenergic agonist isoproterenol, was “bath” applied to the transfected cells and single cell Ca^2+-imaging was performed. Cells were pre-loaded with the Ca^2+-sensitive fluorescent dye FURA-2 AM (Molecular Probes) by bathing in serum-free DMEM containing 4 μM of the membrane permeant chemical for 1 hr at 37° C., then washed with a standard bath solution (130 mM NaCl, 2 mM CaCl2, 5 mM KCl, 10 mM glucose, 10 mM Na.HEPES/pH 7.4 at room temperature). For each experiment, a glass coverslip with FURA-2 loaded HEK 293 cells was introduced into an open-topped, longitudinal microperfusion chamber (300 μl bath volume mounted on a Zeiss Axiovert 135 microscope equipped with an F Fluar 40×/1.30 oil-immersion lens. The cells were superfused with test solutions typically for 30 to 40 seconds (5 ml/application) and washed out with 5 ml of bath solution at the end of each application. Each test solution was freshly diluted and manually applied with a micropipette into the chamber. Because of this manual procedure, there could be several seconds of delay in actual application from electronic tick marks used to define the beginning of application in each graph. At the same time, the solution flow might not be completely laminar. In most cases, the onset of Ca2+ rise in response to a specific solution occurred within 15 seconds of the beginning of solution application, though longer delays were sometimes observed. Acetylcholine was applied at the end of each experiment at 10 μM for 15–20 seconds. Ratiometric Ca^2+ measurements were performed as described by Grynkiewicz (1985) 260:3440–3450, with modifications using the Zeiss/Attofluor-Ratiovision imaging system. […] Fluorescence emission at 510 nm was monitored for each excitation wavelength via an intensified CCD camera. […] Attofluor-Ratiovision software (Atto Instruments) was used to determine the Ca^2+-dependent fluorescence signal expressed as the F340/F380 ratio. […]

[4] = tested on: I-D3 chimeric olfactory receptor; test: Ca2+ imaging, individual clone I-D3 in HEK-293 cells with Gα15,16; assay type: cell-based, mouse
Protocol: These transfected cells were then tested for their ability to functionally respond to ligand-receptor binding. The ligand, the adrenergic agonist isoproterenol, was “bath” applied to the transfected cells and single cell Ca^2+-imaging was performed. Cells were pre-loaded with the Ca^2+-sensitive fluorescent dye FURA-2 AM (Molecular Probes) by bathing in serum-free DMEM containing 4 μM of the membrane permeant chemical for 1 hr at 37° C., then washed with a standard bath solution (130 mM NaCl, 2 mM CaCl2, 5 mM KCl, 10 mM glucose, 10 mM Na.HEPES/pH 7.4 at room temperature). […] Fluorescence emission at 510 nm was monitored for each excitation wavelength via an intensified CCD camera. […] Attofluor-Ratiovision software (Atto Instruments) was used to determine the Ca^2+-dependent fluorescence signal expressed as the F340/F380 ratio. […]

[5] = tested on: endogenous β-adrenergic receptors; test: Single-cell FURA-2 Ca2+ imaging, HEK-293 cells transfected with the G protein subunits (Gα15,16) alone; assay type: cell-based, human; conditions: no receptor construct
Protocol: as §2
These transfected cells were then tested for their ability to functionally respond to ligand-receptor binding. The ligand, the adrenergic agonist isoproterenol, was “bath” applied to the transfected cells and single cell Ca^2+-imaging was performed. […] Fluorescence emission at 510 nm was monitored for each excitation wavelength via an intensified CCD camera. […] Attofluor-Ratiovision software (Atto Instruments) was used to determine the Ca^2+-dependent fluorescence signal expressed as the F340/F380 ratio. […]

[6] = tested on: Rho/M4NC-β2 TM II–VII (TM II–VII region from the β2-adrenergic receptor in pCMV-Rho/M4NC); test: Single-cell FURA-2 Ca2+ imaging, HEK-293 cells co-transfected with Rho/M4NC-β2 TM II–VII and Gα15,16; assay type: cell-based, human
Protocol: HEK-293 cells (obtained from the ATCC) were grown in DMEM supplemented with 10% fetal bovine serum, penicillin (100 U/ml), streptomycin (100 μg/ml) and L-glutamine (2 mM) in 5% CO2. […] After 5 to 7 hr incubation, the cells were washed once with PBS containing 0.5 mM EDTA and 10% DMSO, then with PBS before continuing growth in regular media for 40–50 hr.
Efficient screening of expressed olfactory receptors with a large number of ligands by functional analysis requires a robust and sensitive assay system. […] In this reporter system, (olfactory) receptor activation leads to the generation of an IP3-mediated increase in intracellular Ca^2+, which can be measured at the single-cell level with high sensitivity and good temporal resolution using the dye FURA-2 and radiofluorometric imaging.
A construct with the TM II–VII region from the β2-adrenergic receptor inserted in the pCMV-Rho/M4NC vector (Rho/M4NC-β2 TM II–VII) was co-transfected with Gα15,16 into HEK-293 cells. […] Images of fluorescent cells were obtained on a Zeiss 510 confocal microscope with excitation at 488 nm.
These transfected cells were then tested for their ability to functionally respond to ligand-receptor binding. The ligand, the adrenergic agonist isoproterenol, was “bath” applied to the transfected cells and single cell Ca^2+-imaging was performed. Cells were pre-loaded with the Ca^2+-sensitive fluorescent dye FURA-2 AM (Molecular Probes) by bathing in serum-free DMEM containing 4 μM of the membrane permeant chemical for 1 hr at 37° C., then washed with a standard bath solution (130 mM NaCl, 2 mM CaCl2, 5 mM KCl, 10 mM glucose, 10 mM Na.HEPES/pH 7.4 at room temperature). […] Acetylcholine was applied at the end of each experiment at 10 μM for 15–20 seconds. […] At 5-second intervals, the cells were sequentially illuminated for less than 100 ms, first at 340 nm and then at 380 nm. Fluorescence emission at 510 nm was monitored for each excitation wavelength via an intensified CCD camera. Averaged pixel intensities within 40 to 100 regions of interest, corresponding to 40 to 100 individual cells, were digitized and stored on a computer. Attofluor-Ratiovision software (Atto Instruments) was used to determine the Ca^2+-dependent fluorescence signal expressed as the F340/F380 ratio.

Compound: CC(C)=CCCC(C)CC=O (single isomer, unassigned; (+)) [(+) citronellal]
- qualitative rank order of potency for binding and activating the I-C6 receptor [1]: (−)citronellal>(+)citronellal, citronellyl bromide>28 other odorants
- intracellular Ca2+ response ([1]; 30 μM): elicit a response
- intracellular Ca2+ response ([1]; 100 μM): elicit a response
- intracellular Ca2+ response of a clone pool ([2]; 10 μM): absence of response

Compound: C=C(C)C1CC=C(C)CC1 (single isomer, unassigned; (+)) [(+) limonene]
- intracellular Ca2+ response [3]: responded
- intracellular Ca2+ response of a clone pool ([2]; 10 μM): transient increases in Ca^2+

Compound: C=C(C)C1CC=C(C)C(=O)C1 (single isomer, unassigned; (-)) [(−) carvone]
- intracellular Ca2+ response [4]: responsive
- intracellular Ca2+ response of a clone pool ([2]; 10 μM): transient increases in Ca^2+
- Ca2+ response of a clone pool to a second application ([2]; 10 μM, second application): second response to (−) carvone could still be elicited

Compound: CC(C)=CCCC(C)CC(=O)O (single isomer, unassigned; (-)) [(−) citronellic acid]
- intracellular Ca2+ response ([1]; 30 μM): only 30 μM (−) citronellyl bromide elicited a small response

Compound: CC(C)=CCCC(C)CCO (single isomer, unassigned; (-)) [(−) citronellol]
- intracellular Ca2+ response ([1]; 30 μM): only 30 μM (−) citronellyl bromide elicited a small response

Compound: CC(C)=CCCC(C)CCBr (single isomer, unassigned; (-)) [(−) citronellyl bromide]
- qualitative rank order of potency for binding and activating the I-C6 receptor [1]: (−)citronellal>(+)citronellal, citronellyl bromide>28 other odorants
- intracellular Ca2+ response ([1]; 30 μM): small response
- intracellular Ca2+ response ([1]; control experiments lacking Gα15,16): no response

Compound: C=C(C)[C@H]1CC=C(C)C(=O)C1 [(+) carvone]
- intracellular Ca2+ response [4]: responsive
- intracellular Ca2+ response of a clone pool ([2]; 10 μM): lack of response

Compound: CC(C)=CCC/C(C)=C/C=O [+/− citral]
- intracellular Ca2+ response ([1]; 30 μM): only 30 μM (−) citronellyl bromide elicited a small response

Compound: C=C(C)C1CC=C(C)C(=O)C1 (stereo not shown) [carvone]
- intracellular Ca2+ response ([1]; 100 μM): no responses
- response of a library receptor [2]: responded

Compound: CC(C)NCC(O)c1ccc(O)c(O)c1 (stereo not shown) [isoproterenol]
- intracellular Ca2+ response [5]: small response
- intracellular Ca2+ response (FURA-2 F340/F380) ([6]; bath application, cells co-transfected with Gα15,16): transient increase in intracellular Ca^2+
- Ca2+ response to a second application ([6]; second application (desensitization)): frequently failed to elicit a response
- dependence of the Ca2+ transient on Gα15,16 ([6]; with vs without cotransfected Gα15,16): dependent on cotransfection with the Gα15,16 subunits

Compound: C=C(C)[C@H]1CC=C(C)CC1 [limonene]
- intracellular Ca2+ response ([1]; 100 μM): no responses
- response of a library receptor [2]: responded

Compound: (−) citral demethyl acetal
- intracellular Ca2+ response ([1]; 30 μM): only 30 μM (−) citronellyl bromide elicited a small response

Compound: (−) limonene
- Ca2+ response relative to the (+) isomer [3]: perhaps not as well
- intracellular Ca2+ response [3]: responded
